In US9981923B2, “1,2,3 Triazole antifungal agents and preparation thereof” (COUNCIL OF SCIENTIFIC & INDUSTRIAL RESEARCH, priority 2014, dated 2018):
≈ marks a conversion by molar mass, not a printed value.

Assays:
[1] = tested on: ergosterol; assay: Effect of the compounds on sterol profile (spectrophotometric ergosterol quantitation); type: cell-based, C. albicans ATCC 24433; conditions: C. albicans ATCC 24433, 24 h; 0.5 MIC and MIC of the lead compounds
Method: Inhibition of lanosterol 14 α-demethylase by azoles results in depletion of ergosterol. The depletion can be quantified by spectrophotometry. Briefly, Overnight grown C. albicans ATCC 24433 (1×10^6 cfu/ml) cells were inoculated in a series of flasks containing 50 ml of Yeast extract Peptone Glucose (YPG) broth containing […] of fluconazole per ml as well as 0.5 MIC and MIC of the lead compounds. The cultures were incubated for 24 h with shaking at 30° C. The stationary-phase cells were harvested by centrifugation […] and washed once with sterile distilled water. The net wet weight of the cell pellet was determined. Three milliliters of 25% alcoholic potassium hydroxide solution (25 g of […] and 35 ml of sterile distilled water, brought to 100 ml with 100% ethanol), was added to 125 mg of pellet and vortex mixed for 1 min. Cell suspensions were transferred to sterile borosilicate glass screw-cap tubes and were incubated in an 85° C. water bath for 1 h. Following incubation, tubes were allowed to cool to room temperature. Sterols were then extracted by addition of a mixture of 1 ml of sterile distilled water and 3 ml of n-heptane followed by vigorous vortex mixing for 3 min. The heptane layer was transferred to a clean borosilicate glass screw-cap tube. The sterol extract was scanned spectrophotometrically between 220 and 300 nm with a Spectrophotometer.

[2] = tested on: pathogenic fungi; assay: Antifungal activity, overall assessment of the microbroth dilution results; type: cell-based; conditions: based on the MIC results
Method: (§1) The synthesized compounds were evaluated for antifungal susceptibility by microbroth dilution method according to the recommendations of the Clinical Laboratory Standards Institute (CLSI 2008). Briefly, appropriate amount of compounds were dissolved in dimethyl sulfoxide to get 100× final strength. The stock was then diluted 1:50 in RPMI/YPG medium and 200 μl from this was added to the first row of a 96-well microtitre plate. The compounds were serially diluted two fold in successive wells to get a range of 1-128 μg/ml. Fungal yeast cells (˜2×10^3 cfu/mL), freshly grown in YPG broth in logarithmic phase, were suspended in the medium and inoculated (100 μl) in the wells of the plate. For filamentous fungi, 2×10^4 spores/mL were added. The microtitre plate was incubated for 48 h, and the absorbance was measured at 600 nm by using microtitre plate reader to assess cell growth.

[3] = tested on: Aspergillus niger ATCC 10578; assay: Antifungal susceptibility by microbroth dilution (CLSI); type: cell-based; conditions: Aspergillus niger, ATCC10578; Table 1; 48 h, >90% inhibition of growth; read-out: MIC
Method: as §1

[4] = tested on: Candida albicans ATCC 10231; assay: as above; type: cell-based; conditions: Candida albicans, ATCC10231; Table 1; 48 h, >90% inhibition of growth; read-out: MIC
Method: as §1

[5] = tested on: Candida albicans ATCC 24433; assay: as above; type: cell-based; conditions: Candida albicans, ATCC24433; Table 1; 48 h, >90% inhibition of growth; range 1-128 μg/ml; read-out: MIC
Method: as §1

[6] = tested on: Cryptococcus neoformans ATCC 34664; assay: as above; type: cell-based; conditions: Cryptococcus neoformans, ATCC34664; Table 1; 48 h, >90% inhibition of growth; read-out: MIC
Method: as §1

[7] = tested on: Candida glabrata NCYC 388; assay: as above; type: cell-based; conditions: Nakaseomyces glabratus, NCYC388; Table 1; 48 h, >90% inhibition of growth; read-out: MIC
Method: as §1

[8] = tested on: Aspergillus fumigatus MCC 1046; assay: as above; type: cell-based; conditions: Aspergillus fumigatus, MCC1046; Table 1; 48 h, >90% inhibition of growth; read-out: MIC
Method: as §1

[9] = tested on: reactive oxygen species (ROS); assay: ROS production using dichlorofluorescin diacetate dye; type: cell-based; conditions: C. albicans ATCC 24433, dichlorofluorescin diacetate dye
Method: Apart from lanosterol 14 a-demethylase inhibition, few azoles like miconazole are known to exert their antifungal action by reactive oxygen species (ROS) generation. Therefore ROS production in C. albicans ATCC 24433 was evaluated for these compounds by using dichlorofluorescin diacetate dye. […] ROS can damage a wide range of molecules, including nucleic acids, proteins and lipids, can cause apoptosis, necrotic death and with this wide range of targets it is difficult to determine which events lead to loss of viability of cells following damage.

`Cc1cc(C)cc(C(O)c2cn(-c3ccc(Cl)cc3O)nn2)c1` (stereo not drawn) [Compound 1ab, 5-Chloro-2-(4-((3,5-dimethylphenyl)(hydroxy)methyl)-1H-1,2,3-triazol-1-yl)phenol] was tested, and the “ergosterol depletion (sterol profile, height of absorbance peaks 220-300 nm)” value [1] was “no ergosterol depletion was observed”, the “antifungal activity, overall assessment” value [2] was “promising molecules” and the MIC [3] was > 128 mg/L. For the same compound, the MIC [4] was 32 mg/L (≈ 97 µM), the MIC [5] was 32 mg/L (≈ 97 µM) and the MIC [6] was 32 mg/L (≈ 97 µM). The MIC [7] was 32 mg/L (≈ 97 µM), the MIC [8] was 32 mg/L (≈ 97 µM) and the ROS generation [9] was “dose dependent increase in ROS generation”.
